Data on 16 compounds can be found in ChEMBL document CHEMBL1140573, “Potent achiral agonists of the ghrelin (growth hormone secretagogue) receptor. Part I: Lead identification” (Bioorg Med Chem Lett, 2007).

Values after ≈ are worked out from the molar mass of the structure shown. Active and inactive are the calls of the source. The calls are words filed in the database; no cut-off is given here.

Data set [1] addresses T1, Growth hormone secretagogue receptor type 1 (Homo sapiens, UniProt Q92847). The data set is described as follows: Agonist activity at GSHR by FLIPR assay. The class given is functional.
For data set [2], the target named is T1, Growth hormone secretagogue receptor type 1. In words: Intrinsic activity at GSHR relative to human ghrelin. The class given is functional.
Data set [3] addresses 5-hydroxytryptamine receptor 1B (Homo sapiens, UniProt P28222). The data set is described as follows: Binding affinity at 5HT1B receptor.
A short description of data set [4]: Clearance in rat blood at 1 mg/kg, iv. Particulars: in vivo. The class given is ADME, organism-based. Details: dose 1 mg/kg, route intravenous.
The test system of data set [5] is Liver microsomes. In words: Metabolic stability in human liver microsomes. It is filed as ADME, Microsome.
Data set [6] is described as follows: Distribution coefficient, log D at pH 7.4. Conditions: octanol/water. The class given is physicochemical.
Data set [7] can be described thus: Volume of distribution in rat at 1 mg/kg, iv. Details: dose 1 mg/kg, route intravenous. Particulars: in vivo, read-out: Vdss. It is filed as ADME, organism-based.
Data set [8] has as its target Motilin receptor (Homo sapiens) (UniProt O43193). The data set is described as follows: Activity at motilin GPR38 receptor.
Data set [9] is described as follows: Aqueous solubility at pH 7.4. It is filed as physicochemical.
The nature of data set [10]: Cmax in rat at 1 mg/kg, iv. The class given is ADME, organism-based. Details: dose 1 mg/kg, route intravenous. Particulars: in vivo.
Another data set relates to Rattus norvegicus. The data set is described as follows: Increase in gastric emptying in sc dosed rat. It is filed as functional. Conditions: Stomach.
For data set [11], the system named is Liver microsomes. The data set is described as follows: Metabolic stability in rat liver microsomes. It is filed as ADME, Microsome.
Data set [12] can be described thus: Half life in rat at 1 mg/kg, iv. It is filed as ADME, organism-based. Also on record: dose 1 mg/kg, route intravenous. Particulars: in vivo.

T1 sequence (Q92847 whole entry): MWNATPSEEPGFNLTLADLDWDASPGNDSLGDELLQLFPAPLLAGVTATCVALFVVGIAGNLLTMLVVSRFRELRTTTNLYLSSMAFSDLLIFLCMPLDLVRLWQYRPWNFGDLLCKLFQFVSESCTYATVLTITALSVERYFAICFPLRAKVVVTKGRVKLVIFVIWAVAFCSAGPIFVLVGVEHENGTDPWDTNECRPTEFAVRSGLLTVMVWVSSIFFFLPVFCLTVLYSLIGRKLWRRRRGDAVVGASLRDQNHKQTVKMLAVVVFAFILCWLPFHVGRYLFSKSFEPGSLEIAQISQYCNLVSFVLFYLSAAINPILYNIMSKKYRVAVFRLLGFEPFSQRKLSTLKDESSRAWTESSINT
5-hydroxytryptamine receptor 1B, sequence (P28222 whole entry): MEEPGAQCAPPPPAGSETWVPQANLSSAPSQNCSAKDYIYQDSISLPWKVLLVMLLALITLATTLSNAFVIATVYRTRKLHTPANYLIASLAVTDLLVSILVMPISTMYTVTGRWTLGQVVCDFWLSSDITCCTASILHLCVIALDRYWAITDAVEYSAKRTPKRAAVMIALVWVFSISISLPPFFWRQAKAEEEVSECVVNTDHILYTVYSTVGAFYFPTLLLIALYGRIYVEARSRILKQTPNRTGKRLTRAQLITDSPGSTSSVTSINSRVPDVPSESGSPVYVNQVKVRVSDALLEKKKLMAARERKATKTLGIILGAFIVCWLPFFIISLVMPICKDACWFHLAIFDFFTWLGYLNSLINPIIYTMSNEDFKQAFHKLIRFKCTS
Motilin receptor (Homo sapiens), sequence (O43193 whole entry): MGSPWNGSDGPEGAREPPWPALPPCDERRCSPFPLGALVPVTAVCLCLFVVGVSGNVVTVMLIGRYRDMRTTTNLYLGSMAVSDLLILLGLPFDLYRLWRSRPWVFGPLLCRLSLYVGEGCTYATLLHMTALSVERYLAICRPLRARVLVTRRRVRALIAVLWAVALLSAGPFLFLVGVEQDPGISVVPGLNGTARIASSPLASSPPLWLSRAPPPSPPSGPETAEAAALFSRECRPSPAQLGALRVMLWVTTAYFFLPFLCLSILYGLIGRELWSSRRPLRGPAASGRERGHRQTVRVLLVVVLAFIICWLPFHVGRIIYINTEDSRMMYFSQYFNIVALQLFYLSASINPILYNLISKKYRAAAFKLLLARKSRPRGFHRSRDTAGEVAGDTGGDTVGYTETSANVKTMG

In data set [1], `COc1cc2c(cc1N1C[C@@H](C)N[C@@H](C)C1)N(S(=O)(=O)Cc1cccc(I)c1)CC2` had an EC50 of 31.6 nM. In data set [2], this compound gave an Intrinsic activity of 0.8.

As to `COc1cc2c(cc1N1CCN[C@@H](C)C1)N(S(=O)(=O)c1ccc(-c3ccccn3)s1)CC2`, the response in data set [1] was half-maximal at 3.16 nM (EC50). In addition, the Intrinsic activity in data set [2] came out at 1.

`COc1cc2c(cc1N1C[C@@H](C)N(C)[C@@H](C)C1)N(S(=O)(=O)c1cccc(Br)c1)CC2` showed an inhibition constant (Ki) in data set [3] of 2000 nM. The compound also gave an EC50 in [1] of 126 nM. In [2], this compound registered an Intrinsic activity of 0.7.

In data set [1], `COc1cc2c(cc1N1C[C@@H](C)N[C@@H](C)C1)N(S(=O)(=O)CCc1ccccc1Cl)CC2` showed a half-maximal effective concentration (EC50) of 5.01 nM. In [2], this compound showed an Intrinsic activity of 0.9.

`COc1cc2c(cc1N1C[C@@H](C)N[C@@H](C)C1)N(S(=O)(=O)c1ccc3ccccc3c1)CC2`: the midpoint of the response in [1], the EC50, lay at 0.501 nM. The compound further gave an Intrinsic activity in data set [2] of 1.

Compound `COc1cc2c(cc1N1CCN[C@H](C)C1)N(S(=O)(=O)c1ccc(-c3ccccn3)s1)CC2` had an EC50 in data set [1] of 3.98 nM. Moreover, the Intrinsic activity in [2] was 1.

In data set [1], `COc1cc2c(cc1N1C[C@H](C)NC(C)(C)C1)N(S(=O)(=O)c1ccc(-c3ccccn3)s1)CC2` showed a half-maximal effective concentration (EC50) of 0.794 nM. This compound also had an Intrinsic activity in data set [2] of 1.

In turn, `COc1cc2c(cc1N1C[C@@H](C)N[C@@H](C)C1)N(S(=O)(=O)c1ccc(-c3ccccn3)cc1)CC2` had an EC50 in [1] of 0.2 nM. In addition, the Intrinsic activity in [2] amounted to 1.1.

Turning to `COc1cc2c(cc1N1C[C@@H](C)NC(C)(C)C1)N(S(=O)(=O)c1ccc(-c3ccccn3)s1)CC2`, the EC50 in data set [1] is 10 nM. Also, the Intrinsic activity in [2] was found to be 0.8.

`COc1cc2c(cc1N1CCNC(C)(C)C1)N(S(=O)(=O)c1ccc(-c3ccccn3)s1)CC2` showed an EC50 in data set [1] of 15.8 nM. Further, the Intrinsic activity in data set [2] came to 0.9.

`COc1cc2c(cc1N1C[C@@H](C)N[C@@H](C)C1)N(S(=O)(=O)c1cccc(-c3ccccn3)c1)CC2`: the response in [1] was half-maximal at 20 nM (EC50). Also, the Intrinsic activity in [2] is 0.9.

The compound `COc1cc2c(cc1N1C[C@@H](C)N[C@@H](C)C1)N(S(=O)(=O)c1ccc(-c3ccon3)s1)CC2` had an EC50 in [1] of 2.51 nM. Besides, the Intrinsic activity in data set [2] came to 0.9.

In data set [4], `COc1cc2c(cc1N1C[C@@H](C)N[C@@H](C)C1)N(S(=O)(=O)c1ccc(-c3ccccn3)s1)CC2` yielded a Clearance blood of 64 mL/min/kg. In data set [1], this compound had an EC50 of 0.158 nM. Further, the Stability was 4.5 mL/min/g in the data set with Liver microsomes [5] and 2.6 mL/min/g with Liver microsomes [11]. Also, the logD in data set [6] turned out to be 1.8. Further, the Vd in data set [7] is 8.8 L/kg. Besides, the outcome in [8] was inactive. Also, the solubility in data set [9] is 168 µg/mL (≈ 347 µM). In data set [10], the highest level (Cmax) was 250 nM. The same compound gave a median effective dose (ED50) in the data set with Rattus norvegicus of 0.1 mg/kg. In data set [2], the Intrinsic activity came to 0.9. The half-life in data set [12] was 138 min.

In turn, `COc1cc2c(cc1N1CCNCC1)N(S(=O)(=O)c1ccc(-c3ccccn3)s1)CC2` gave a concentration giving a half-maximal response (EC50) in data set [1] of 63.1 nM. Further, in data set [2], the Intrinsic activity is 0.8.

Consider `CCOc1ccc(CC(=O)N2CCc3cc(OC)c(N4C[C@@H](C)N(C)[C@@H](C)C4)cc32)cc1Cl`, for which, in [3], the affinity corresponds to a Ki of 12.6 nM. The compound also had an EC50 in data set [1] of 158 nM. This compound also yielded an Intrinsic activity in [2] of 0.7.

Compound `COc1cc2c(cc1N1C[C@@H](C)N(C)[C@@H](C)C1)N(S(=O)(=O)c1ccc3ccccc3c1)CC2` gave an EC50 in data set [1] of 39.8 nM. Besides, in [2], the Intrinsic activity turned out to be 0.8.
